# Key:
# sodium channel = conditions: small studies; cited from earlier work
# normal fibroblasts = assay: MTS cell viability of normal fibroblasts exposed to caffeine; format: cell-based, human; conditions: highest concentration (500 μM), 24 h, relative to cells not exposed to caffeine
# Protocol: Cells were aliquoted in 96-well plate with 1.0×10^4 cells per well and incubated for 24 h. […] To measure cell viability, MTS tetrazolium salt was added to each well and was incubated for 4 h at 37° C. in a humidified chamber with 5% CO2. The conversion of MTS into soluble formazan (accomplished by dehydrogenase enzymes from metabolically active cells) was measured by absorbance at 490 nm (CellTiter 96® Aqueous Non-Radioactive Cell Profileration Assay, Promega). Data were transformed to percentage of survival relative to cells not exposed to caffeine, which established 100% viability.
# [1] = system: CUG repeat RNA (6-FAM-CUG23); assay: Fluorescence polarization assay with 6-FAM-CUG23 RNA; format: binding; conditions: increasing concentrations, up to twice those of positive control pentamidine
# Protocol: This was assessed in fluorescence polarization spectroscopy experiments in which fluorescent CUG RNA probe (carboxyfluorescein (6-FAM)-labeled) was incubated in increasing concentrations of caffeine.
# Carboxyfluorescein-labeled CUG RNA (23 CUG repeats; 6-FAM-CUG23) at 6 nM was incubated with caffeine at different concentrations in binding buffer (50 mM Tris-HCl pH 7.0, 250 mM NaCl, 50 μM ZnCl2, 10% glycerol, 1 mM DTT) on ice for 20 min in the dark. Polarization was measured in a EnVision® Multilabel Reader using as excitation filter FP480 and as emission filter FP535.
# [2] = system: human MBNL1 promoter under Drosophila muscleblind ME enhancer (eGFP reporter); assay: eGFP reporter expression in ME:hsaP1-eGFP transgenic flies; format: in vivo; conditions: heterozygous ME:hsaP1-eGFP flies, 25 mg/ml caffeine in food, 8 h, vs sucrose
# [3] = system: MBNL1 expression in human DM1 myoblasts; assay: Immunodetection of MBNL1 in DM1 myoblasts; format: cell-based
# Protocol: Fibroblasts were transdifferentiated in myoblasts by inducing expression of MyoD. Cells were plated in muscle differentiation medium (MDM) made of DMEM 4.5 g/L glucose with 1% P/S, 2% horse serum, 1% apo-transferrin (10 mg/ml), 0.1% insulin (10 mg/ml) and 0.02% doxycyclin (10 mg/ml) for 48 h. For compound testing fibroblasts were aliquoted in 24-well plate with 3.5×10^4 cells per well and were differentiated as before. […] Cells were then incubated with ABC solution (ABC kit, VECTASTAIN) for 30 min at room temperature, followed by PBT washes and incubation with streptavidin-FITC (1:1000) for 20 min.
# DM1 model flies = assay: Climbing assay in DM1 model flies; format: in vivo, Drosophila; conditions: 1.72 mM caffeine in nutritive media vs DMSO
# Protocol: Groups of ten 5-day-old males were transferred into vials of 1.5 cm in diameter and 25 cm in height, after a period of 24 hours without anesthesia. The height reached from the bottom of the vial by each fly in a period of 10 s was recorded with a camera. For each genotype, approximately 30 flies were tested. […] We used a t-test to assess the statistical difference between the two groups of flies, fed with or without compound.
# CAG-CTG repeat sequences = conditions: high doses of caffeine, close to 2 mM; cited from earlier work
# CUG repeats = conditions: WO03/020977; cited from earlier work
# foci = conditions: WO03/020977; cited from earlier work
# [4] = system: ribonuclear foci in DM1 fibroblasts; assay: Ribonuclear foci detection by in situ hybridization in DM1 fibroblasts; conditions: caffeine in culture media, vs DMSO
# Protocol: Cell model of the disease (provided by the D. Furling's laboratory, Institute of Myologie, Paris) consisted of normal and DM1 (1300 CTG repeats) immortalized (hTERT) skin fibroblasts expressing conditional MyoD. […] Fibroblasts were transdifferentiated in myoblasts by inducing expression of MyoD. Cells were plated in muscle differentiation medium (MDM) made of DMEM 4.5 g/L glucose with 1% P/S, 2% horse serum, 1% apo-transferrin (10 mg/ml), 0.1% insulin (10 mg/ml) and 0.02% doxycyclin (10 mg/ml) for 48 h. For compound testing fibroblasts were aliquoted in 24-well plate with 3.5×10^4 cells per well and were differentiated as before.
# [5] = system: DM1 pathology (splicing defects); conditions: cited from earlier work
smiles,measurement,setting,value
"Cc1cccc(C)c1OCC(C)N (stereo not drawn) [Mexiletine, mexiletine]",myotonia,sodium channel,reduced
Cn1c(=O)c2c(ncn2C)n(C)c1=O [caffeine],percentage of survival of normal fibroblasts (living cells),normal fibroblasts,greater than 50%
same,polarization values of 6-FAM-CUG RNA (binding to CUG repeats),[1],did not increase
same,"expression of the eGFP reporter, normalized to total protein",[2],significantly increase
same,MBNL1 expression in the cytoplasm and in the cell nucleus,"[3]; 125 and 250 μM caffeine, 48 h, vs DMSO alone",increased
same,number of MBNL1-containing foci,[3]; caffeine-treated vs DMSO-treated cells,qualitatively higher
same,climbing velocity,DM1 model flies,significantly improved
same,increase of the rate of expansion,CAG-CTG repeat sequences,~63%
same,binding to CUG repeats,CUG repeats,not able to bind
same,number of foci,foci,increases
same,mean number of ribonuclear foci per cell,[4],increased
N=C(N)c1ccc(OCCCCCOc2ccc(C(=N)N)cc2)cc1 [pentamidine],rescue of DM1 pathology,[5],partial rescue

# — patent publication US20170304309A1, “CAFFEINE FOR THE TREATMENT OF MYOTONIC DYSTROPHY TYPE 1 AND TYPE 2” (UNIVERSITAT DE VALÈNCIA, priority 2014, published 2017)
